Results as given in PMC10686989, “Distinct activation mechanisms of β-arrestin-1 revealed by ^19F NMR spectroscopy” (Nature Communications, 2023).

Biological target: T1, βarr1 (Homo sapiens, UniProt P49407, C125S/C140L/C150V/C242V/C251V/C269S/C59V/D390C)
T1 construct: we started from a full-length functional cysteine-less βarr1 construct[20]; 6xHis-tag with SSG linker and thrombin cleavage site (N, cleaved yes); made in house; host or cells: E. coli BL21(DE3)
Test: 19F CEST experiments on βarr1
Type: biochemical
Description: The ^19F CEST experiments were acquired at 298 K on Bruker AVANCE III HD 800 MHz spectrometer equipped a ^1H-^19F/^13C/^15N TCI triple resonance cryogenic probe. Sample preparation was the same as for the 1D ^19F NMR experiments, and the protein concentrations were in the range of 50–100 μM depending on the expression levels of different constructs. For each ^19F-labeled sample, a series of 1D saturation transfer experiments were recorded using a 0.2 s recovery delay followed by a 1.8 s saturation period using irradiation field strengths B1 of 10 Hz. For each sample, the positions and spacings of the carrier frequencies for saturation were determined based on the multiple signals observed in the 1D ^19F spectra, normally covering the chemical shift ranges of the signals of interest. The data were collected with a spectral width of 15,000 Hz and the scan number in the range of 400–1500. The spectra were processed and analyzed using the Bruker Topspin 4.2.0 software. The CEST profiles were drawn using GraphPad Prism® 9.

T1 sequence (P49407 whole entry C59V/C125S/C140L/C150V/C242V/C251V/C269S/D390C): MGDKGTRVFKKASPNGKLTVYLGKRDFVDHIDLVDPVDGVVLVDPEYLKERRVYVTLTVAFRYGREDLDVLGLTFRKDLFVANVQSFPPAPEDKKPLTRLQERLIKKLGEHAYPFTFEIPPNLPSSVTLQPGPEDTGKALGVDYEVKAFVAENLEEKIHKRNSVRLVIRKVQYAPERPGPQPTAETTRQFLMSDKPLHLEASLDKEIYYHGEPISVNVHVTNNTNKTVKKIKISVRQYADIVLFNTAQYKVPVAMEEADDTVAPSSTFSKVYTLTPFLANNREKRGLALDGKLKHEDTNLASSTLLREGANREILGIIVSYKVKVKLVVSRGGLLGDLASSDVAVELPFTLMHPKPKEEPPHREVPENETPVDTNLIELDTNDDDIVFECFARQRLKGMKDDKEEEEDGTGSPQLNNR

## CCCCCCCC(=O)OC[C@H](COP(=O)(O)O[C@@H]1[C@H](O)[C@H](O)[C@@H](OP(=O)(O)O)[C@H](OP(=O)(O)O)[C@H]1O)OC(=O)CCCCCCC [PIP2, diC8-PI(4,5)P2]
D390C site
  Intermediate S* state by CEST: induces an intermediate conformational species designated as S*
E404C and T6C sites
  Intermediate S* state by CEST: induces the conformational equilibrium to shift from the basal towards an intermediate S* state
H295C site
  Intermediate S* state by CEST: present in relatively large fraction in both the basal and PIP2-bound states
